Results from ChEMBL document CHEMBL5052856, “Inhibitors of apol1 and methods of using same” (2021).

Target: Apolipoprotein L1 (Homo sapiens, UniProt O14791)
Assay: Inhibition of APOL1 G1 variant in human HEK293-T-REx cells measured by Thallium assay
Type: cell-based

Structure (SMILES) | IC50 [µM]
O=C(NCCn1cncn1)[C@H]1C[C@@H](c2c(-c3ccc(F)cc3)[nH]c3c(F)cc(F)cc32)C1 | > 1
C[C@@H](O)CNC(=O)[C@H]1C[C@@H](c2c(-c3ccc(F)cc3)[nH]c3c(F)cc(F)cc32)C1 | > 1
NC(=O)C(CO)NC(=O)[C@H]1C[C@@H](c2c(-c3ccc(F)cc3)[nH]c3c(F)cc(F)cc32)C1 (some centres not stated) | > 1
O=C(N[C@H]1C[C@H](O)C1)[C@H]1C[C@@H](c2c(-c3ccc(F)cc3)[nH]c3c(F)cc(F)cc32)C1 | > 1
C[C@H](CO)NC(=O)CNC(=O)[C@H]1C[C@H](c2c(-c3ccc(F)cc3)[nH]c3c(F)cc(F)cc32)C1 | > 1
O=C(NCC(O)CO)[C@H]1C[C@@H](c2c(-c3ccc(F)cc3)[nH]c3c(F)cc(F)cc32)C1 (some centres not stated) | > 1
O=C1NCCC1NC(=O)[C@H]1C[C@@H](c2c(-c3ccc(F)cc3)[nH]c3c(F)cc(F)cc32)C1 (some centres not stated) | > 1
Cn1cnc(CNC(=O)C2(C)CC(c3c(-c4ccc(F)cc4)[nH]c4c(F)cc(F)cc34)C2)c1 (configuration not stated) | 0.00025
O=C(CNC(=O)[C@H]1C[C@H](c2c(-c3ccc(F)cc3)[nH]c3c(F)cc(F)cc32)C1)NCCO | > 1
O=C(NC(CO)CO)[C@H]1C[C@@H](c2c(-c3ccc(F)cc3)[nH]c3c(F)cc(F)cc32)C1 | > 1
Cc1ccn(CCNC(=O)[C@H]2C[C@@H](c3c(-c4ccc(F)cc4)[nH]c4c(F)cc(F)cc43)C2)n1 | 0.00025
O=C1NC[C@@H](O)[C@@H]1NC(=O)[C@H]1C[C@H](c2c(-c3ccc(F)cc3)[nH]c3c(F)cc(F)cc32)C1 | < 0.25
NC(=O)CNC(=O)C1CC(c2c(-c3ccc(F)cc3)[nH]c3c(F)cc(C(F)(F)F)cc23)C1 (configuration not stated) | < 0.25
CC1(C(=O)NC2(CO)CC2)CC(c2c(-c3ccc(F)cc3)[nH]c3c(F)cc(F)cc23)C1 (configuration not stated) | < 0.25
O=C(N[C@@H]1CCOC1)[C@H]1C[C@@H](c2c(-c3ccc(F)cc3)[nH]c3c(F)cc(F)cc32)C1 | > 1
O=C(NCC(F)(F)F)[C@H]1C[C@@H](c2c(-c3ccc(F)cc3)[nH]c3c(F)cc(F)cc32)C1 | 0.00025
C[C@H](CO)NC(=O)[C@H]1C[C@@H](c2c(-c3ccc(F)cc3)[nH]c3c(F)cc(F)cc32)C1 | > 1
CC(CO)NC(=O)[C@H]1C[C@@H](c2c(-c3ccc(F)cc3)[nH]c3c(F)cc(F)cc32)C1 (some centres not stated) | > 1
C[C@H](O)[C@H](CO)NC(=O)[C@H]1C[C@@H](c2c(-c3ccc(F)cc3)[nH]c3c(F)cc(F)cc32)C1 | > 1

Structure (SMILES) | IC50 [µM]
O=C(NCCO)[C@H]1C[C@@H](c2c(-c3ccc(F)cc3)[nH]c3c(F)cc(F)cc32)C1 | 0.00025
O=C(NC1(CO)CC1)C1(F)CC(c2c(-c3ccc(F)cc3)[nH]c3c(F)cc(F)cc23)C1 (configuration not stated) | < 0.25
O=C(NCC1CC(F)(F)C1)[C@H]1C[C@@H](c2c(-c3ccc(F)cc3)[nH]c3c(F)cc(F)cc32)C1 | > 1
O=C1CN(C(=O)[C@H]2C[C@@H](c3c(-c4ccc(F)cc4)[nH]c4c(F)cc(F)cc43)C2)CCN1 | > 1
O=C(NC1(CO)CC1)[C@H]1C[C@@H](c2c(-c3ccc(F)cc3)[nH]c3c(F)cc(F)cc32)C1 | > 1
CC1(C(=O)NCCO)CC(c2c(-c3ccc(F)cc3)[nH]c3c(F)cc(F)cc23)C1 (configuration not stated) | 0.00025
CC(O)[C@H](CO)NC(=O)[C@H]1C[C@@H](c2c(-c3ccc(F)cc3)[nH]c3c(F)cc(F)cc32)C1 (some centres not stated) | > 1
C[C@@H](CO)NC(=O)[C@H]1C[C@@H](c2c(-c3ccc(F)cc3)[nH]c3c(F)cc(F)cc32)C1 | 0.00025
O=C1NCCCC1NC(=O)[C@H]1C[C@@H](c2c(-c3ccc(F)cc3)[nH]c3c(F)cc(F)cc32)C1 (some centres not stated) | > 1
O=C1NC[C@@H](O)[C@@H]1NC(=O)[C@H]1C[C@@H](c2c(-c3ccc(F)cc3)[nH]c3c(F)cc(F)cc32)C1 | > 1
Cn1nccc1CNC(=O)[C@H]1C[C@@H](c2c(-c3ccc(F)cc3)[nH]c3c(F)cc(F)cc32)C1 | > 1
O=C1NCC[C@H]1NC(=O)[C@H]1C[C@@H](c2c(-c3ccc(F)cc3)[nH]c3c(F)cc(F)cc32)C1 | > 1
CC[C@@H](CO)NC(=O)[C@H]1C[C@@H](c2c(-c3ccc(F)cc3)[nH]c3c(F)cc(F)cc32)C1 | > 1
O=C(NC(CO)(CO)CO)[C@H]1C[C@H](c2c(-c3ccc(F)cc3)[nH]c3c(F)cc(F)cc32)C1 | < 0.25
O=C(N[C@H]1CCOC1)[C@H]1C[C@@H](c2c(-c3ccc(F)cc3)[nH]c3c(F)cc(F)cc32)C1 | > 1
O=C(CNC(=O)[C@H]1C[C@H](c2c(-c3ccc(F)cc3)[nH]c3c(F)cc(F)cc32)C1)NC[C@@H](O)C(F)(F)F | > 1
O=C([C@H]1C[C@@H](c2c(-c3ccc(F)cc3)[nH]c3c(F)cc(F)cc32)C1)N1C[C@@H](O)[C@H](O)C1 | > 1
O=C(NC(CO)(CO)CO)[C@H]1C[C@@H](c2c(-c3ccc(F)cc3)[nH]c3c(F)cc(F)cc32)C1 | 0.00025
O=C(NC1CC(O)C1)[C@H]1C[C@@H](c2c(-c3ccc(F)cc3)[nH]c3c(F)cc(F)cc32)C1 (some centres not stated) | > 1

Structure (SMILES) | IC50 [µM]
Cn1nccc1NC(=O)[C@H]1C[C@@H](c2c(-c3ccc(F)cc3)[nH]c3c(F)cc(F)cc32)C1 | > 1
O=C(NC1(CO)CCC1)[C@H]1C[C@@H](c2c(-c3ccc(F)cc3)[nH]c3c(F)cc(F)cc32)C1 | 0.00025
O=C(N[C@@H](CO)C(F)F)[C@H]1C[C@H](c2c(-c3ccc(F)cc3)[nH]c3c(F)cc(F)cc32)C1 | < 0.25
O=C1CCC(NC(=O)[C@H]2C[C@@H](c3c(-c4ccc(F)cc4)[nH]c4c(F)cc(F)cc43)C2)C(=O)N1 (some centres not stated) | > 1
CC(C)C(CO)NC(=O)[C@H]1C[C@@H](c2c(-c3ccc(F)cc3)[nH]c3c(F)cc(F)cc32)C1 (some centres not stated) | > 1
O=C(NCCO)C1CC(c2c(-c3ccc(F)cc3)[nH]c3c(F)cc(C(F)(F)F)cc23)C1 (configuration not stated) | 0.00025
Cn1cnc(CNC(=O)C2(F)CC(c3c(-c4ccc(F)cc4)[nH]c4c(F)cc(F)cc34)C2)c1 (configuration not stated) | < 0.25
CC(CO)(CO)NC(=O)[C@H]1C[C@@H](c2c(-c3ccc(F)cc3)[nH]c3c(F)cc(F)cc32)C1 | 0.00025
COCCNC(=O)[C@H]1C[C@@H](c2c(-c3ccc(F)cc3)[nH]c3c(F)cc(F)cc32)C1 | > 1
Cn1cnc(CNC(=O)[C@H]2C[C@@H](c3c(-c4ccc(F)cc4)[nH]c4c(F)cc(F)cc43)C2)c1 | > 1
O=C(NCC(F)F)[C@H]1C[C@@H](c2c(-c3ccc(F)cc3)[nH]c3c(F)cc(F)cc32)C1 | 0.00025
O=C(NCCn1cccc1)[C@H]1C[C@@H](c2c(-c3ccc(F)cc3)[nH]c3c(F)cc(F)cc32)C1 | > 1
CC(C)CC(NC(=O)[C@H]1C[C@@H](c2c(-c3ccc(F)cc3)[nH]c3c(F)cc(F)cc32)C1)C(N)=O (some centres not stated) | > 1
NC(=O)CNC(=O)[C@H]1C[C@@H](c2c(-c3ccc(F)cc3)[nH]c3c(F)cc(F)cc32)C1 | > 1
CC(C)(CO)NC(=O)[C@H]1C[C@@H](c2c(-c3ccc(F)cc3)[nH]c3c(F)cc(F)cc32)C1 | 0.00025
O=C(NCC1COC1)[C@H]1C[C@@H](c2c(-c3ccc(F)cc3)[nH]c3c(F)cc(F)cc32)C1 | > 1
O=C(N[C@@H](CO)C(F)F)[C@H]1C[C@@H](c2c(-c3ccc(F)cc3)[nH]c3c(F)cc(F)cc32)C1 | 0.00025
O=C(CNC(=O)[C@H]1C[C@H](c2c(-c3ccc(F)cc3)[nH]c3c(F)cc(F)cc32)C1)NC[C@H](O)C(F)(F)F | > 1
CC1(C(=O)N[C@H]2CCNC2=O)CC(c2c(-c3ccc(F)cc3)[nH]c3c(F)cc(F)cc23)C1 (some centres not stated) | 0.00025
